Measurements as given in US7699995B2, “Water treatment method” (priority 2006, dated 2010).
Marks after values point to notes of the source that are not given here.

Legend:
[1] = test system: Mycobacterium chelonae (ATCC 14472); assay: High resolution MIC test, pure culture, 1/10x TSB; assay type: cell-based; conditions: M. chelonae, 24 hours at 37° C.
Description: (§1) The lowest concentration of microbicide required to inhibit bacteria was determined by a high resolution MIC test. Varying amounts of each microbicide were added to media in a 96-well microtiter plate. The media used for the MIC tests was 10% Trypicase Soy Broth ( 1/10× TSB). […] serial dilutions were performed on a Biomek 2000 Workstation to obtain a range of closely spaced concentrations of microbicides. A cell suspension of stationary phase microorganisms, adjusted to provide 10^6 colony forming units (CFU)/mL in each well for bacteria was added to the microtiter plate. The microtiter plates were incubated for 24 hours at 30° C. for Mycobacterium immunogenum and 37° C. for Mycobacterium chelonae. The presence or absence of microbial growth was determined by measuring the turbidity in each well using a Thermomax microplate reader set at an absorbance of 650 nm. The lowest concentration of compound in which no growth was observed was considered the MIC value for the microbicide. The MIC value for each microbicide was determined from the average of four determinations for bacteria.
(§2) Bacterial strains tested included Mycobacterium chelonae (ATCC 14472) and Mycobacterium immunogenum (ATCC 700505). Mycobacterial cultures were grown overnight at 30° C. (M. immunogenum) or 37° C. (M. chelonae), in a rotary shaking bath in Middlebrook […] with Middlebrook enrichment. A 1:20 dilution of the overnight culture was made into the appropriate test media and inoculated to give a final concentration of 10^6 to 10^7 CFU/ml.

[2] = test system: Mycobacterium immunogenum (ATCC 700505); assay: High resolution MIC test, pure culture, 1/10x TSB; assay type: cell-based; conditions: M. immunogenum, 24 hours at 30° C.
Description: as §1, §2

[3] = test system: Mycobacterium chelonae (ATCC 14472); assay: MBC test, transfer from MIC plates to fresh media; assay type: cell-based; conditions: M. chelonae, no survivors after 2 days in fresh media
Description: as §2
(§3) MBC tests were conducted by transferring samples from the MIC test samples into fresh media and observing for growth of the culture. Growth was determined as above. In this test using Biomek 2000 Workstation, 10 μl samples taken from the 96-well MIC plates were placed in […] of fresh growth media to determine the number of surviving organisms for the same gradient of biocide concentrations. These plates were incubated and read in the same fashion as the MIC plates.

[4] = test system: Mycobacterium immunogenum (ATCC 700505); assay: MBC test, transfer from MIC plates to fresh media; assay type: cell-based; conditions: M. immunogenum, no survivors after 2 days in fresh media
Description: as §2, §3

[5] = test system: natural, resident populations of Mycobacterium; assay: Eradication of mycobacteria in naturally contaminated in-use metalworking fluids; assay type: cell-based
Description: A comparative study was conducted evaluating six metalworking fluid biocides versus natural, resident populations of Mycobacterium from six in-use metalworking fluids. CMIT/MIT, CMIT/MIT/MCC, MIT, BIT, triazine, and PCMC microbicides were tested under controlled laboratory conditions to determine their efficacy at the maximum manufacturer's recommended dose rate (Table 2). The metalworking fluids were known to contain high levels of mycobacteria prior to dosing with biocides. Samples were then dosed with biocides, incubated with agitation at room temperature and viable mycobacteria counts determined after 48 hours by plating onto Middlebrook 7H10 medium, with Tween 80, glycerin, cyclohexamide, chloramphenicol, and gentamycin to suppress the growth of unwanted microorganisms.
The six metalworking fluid samples containing mycobacteria study from Example 7, were also tested using the same biocides with dosing at 50% of the maximum manufacturer's recommended rate (Table 2) under the same conditions. These metalworking fluids were known to contain high levels of mycobacteria prior to dosing with biocides. Samples were then dosed with biocides, incubated with agitation at room temperature and viable mycobacteria counts determined after 48 hours by plating onto Middlebrook 7H10 medium, with Tween 80, glycerin, cyclohexamide, chloramphenicol, and gentamycin to suppress the growth of unwanted microorganisms.

[6] = Stability in buffered water at various pH and temperatures (HPLC); assay type: physicochemical
Description: Biocides were added to buffer solutions and stability was tested at 22° and 50° C. using HPLC to measure biocide concentration at 0 time, 21 days, 43 days, and 88-90 days. Biocide stability was determined in the following buffer solutions: pH2, 0.01M HCl; pH6, 0.1M KH2PO4; pH8, 0.025M borate; pH10, 0.025M borate; pH12, 0.05M Na2HPO4. Biocide concentrations tested were 100 ppm MI, 200 ppm BIT, 44 ppm CMI.

[7] = Stability in high pH metalworking fluid use dilutions (HPLC); assay type: physicochemical; conditions: for % CMIT Remaining (without MCC) / % CMIT Remaining (with MCC): 25° C.; for % CMIT Remaining (with MCC): MCC 300 ppm
Description: Stability studies were conducted in three high pH metalworking fluid use dilutions to compare the persistence of MIT biocide versus CMIT biocide, tested alone and in combination with MCC). Aliquots of the use-diluted fluids were dosed with 17.5 ppm active CMIT/MIT and CMIT/MIT/MCC and stored at 25° C. Biocide concentrations were determined at time zero and weekly using high performance liquid chromatography (HPLC) analysis.

[8] = Synthetic Fluid 2 (pH 9.4), 1 wk
[9] = Synthetic Fluid 2 (pH 9.4), 3 wk

Cc1cc(O)ccc1Cl [PCMC]
Minimum Inhibitory Concentration [1]: 20 ppm active | Minimum Inhibitory Concentration [2]: 35 ppm active | Minimum Biocidal Concentration [3]: 60 ppm active | Minimum Biocidal Concentration [4]: 75 ppm active | Log Reduction in Mycobacterial Counts versus Control (no biocide) ([5]; Fluid 1, 48 hours, 50% of recommended maximum dose): 0.00 log | Log Reduction in Mycobacterial Counts versus Control (no biocide) ([5]; Fluid 1, 48 hours, 100% of recommended maximum dose): 5.88 log | Log Reduction in Mycobacterial Counts versus Control (no biocide) ([5]; Fluid 2, 48 hours, 50% of recommended maximum dose): 1.00 log | Log Reduction in Mycobacterial Counts versus Control (no biocide) ([5]; Fluid 2, 48 hours, 100% of recommended maximum dose): 5.00 log | Log Reduction in Mycobacterial Counts versus Control (no biocide) ([5]; Fluid 3, 48 hours, 50% of recommended maximum dose): 0.00 log | Log Reduction in Mycobacterial Counts versus Control (no biocide) ([5]; Fluid 3, 48 hours, 100% of recommended maximum dose): 1.00 log | Log Reduction in Mycobacterial Counts versus Control (no biocide) ([5]; Fluid 4, 48 hours, 50% of recommended maximum dose): 5.24 log | Log Reduction in Mycobacterial Counts versus Control (no biocide) ([5]; Fluid 4, 48 hours, 100% of recommended maximum dose): 5.24 log | Log Reduction in Mycobacterial Counts versus Control (no biocide) ([5]; Fluid 5, 48 hours, 50% of recommended maximum dose): 0.51 log | Log Reduction in Mycobacterial Counts versus Control (no biocide) ([5]; Fluid 5, 48 hours, 100% of recommended maximum dose): 0.90 log | Log Reduction in Mycobacterial Counts versus Control (no biocide) ([5]; Fluid 6, 48 hours, 50% of recommended maximum dose): 3.88 log | Log Reduction in Mycobacterial Counts versus Control (no biocide) ([5]; Fluid 6, 48 hours, 100% of recommended maximum dose): 3.88 log

C1COCN1 [Oxazolidine]
Minimum Inhibitory Concentration [1]: 42 ppm active | Minimum Inhibitory Concentration [2]: 38 ppm active | Minimum Biocidal Concentration [3]: 34 ppm active | Minimum Biocidal Concentration [4]: 836 ppm active

Cn1sc(Cl)cc1=O [CMI, 5-chloro-2-methyl-4-isothiazolin-3-one]
Percent Remaining at: pH 2 ([6]; 22° C., day 0): 100% | Percent Remaining at: pH 6 ([6]; 22° C., day 0): 100% | Percent Remaining at: pH 8 ([6]; 22° C., day 0): 100% | Percent Remaining at: pH 10 ([6]; 22° C., day 0): 100% | Percent Remaining at: pH 12 ([6]; 22° C., day 0): 100% | Percent Remaining at: pH 2 ([6]; 22° C., day 21): 100% | Percent Remaining at: pH 6 ([6]; 22° C., day 21): 100% | Percent Remaining at: pH 8 ([6]; 22° C., day 21): 100% | Percent Remaining at: pH 10 ([6]; 22° C., day 21): 0% | Percent Remaining at: pH 12 ([6]; 22° C., day 21): 0% | Percent Remaining at: pH 2 ([6]; 22° C., day 43): 100% | Percent Remaining at: pH 6 ([6]; 22° C., day 43): 100% | Percent Remaining at: pH 8 ([6]; 22° C., day 43): 91% | Percent Remaining at: pH 10 ([6]; 22° C., day 43): 0% | Percent Remaining at: pH 12 ([6]; 22° C., day 43): 0% | Percent Remaining at: pH 2 ([6]; 22° C., day 88): 100% | Percent Remaining at: pH 6 ([6]; 22° C., day 88): 100% | Percent Remaining at: pH 8 ([6]; 22° C., day 88): 95% | Percent Remaining at: pH 10 ([6]; 22° C., day 88): 0% | Percent Remaining at: pH 12 ([6]; 22° C., day 88): 0% | Percent Remaining at: pH 2 ([6]; 50° C., day 0): 100% | Percent Remaining at: pH 6 ([6]; 50° C., day 0): 100% | Percent Remaining at: pH 8 ([6]; 50° C., day 0): 100% | Percent Remaining at: pH 10 ([6]; 50° C., day 0): 100% | Percent Remaining at: pH 12 ([6]; 50° C., day 0): 100% | Percent Remaining at: pH 2 ([6]; 50° C., day 21): 100% | Percent Remaining at: pH 6 ([6]; 50° C., day 21): 100% | Percent Remaining at: pH 8 ([6]; 50° C., day 21): 15% | Percent Remaining at: pH 10 ([6]; 50° C., day 21): 0% | Percent Remaining at: pH 12 ([6]; 50° C., day 21): 0% | Percent Remaining at: pH 2 ([6]; 50° C., day 43): 93% | Percent Remaining at: pH 6 ([6]; 50° C., day 43): 65% | Percent Remaining at: pH 8 ([6]; 50° C., day 43): 0% | Percent Remaining at: pH 10 ([6]; 50° C., day 43): 0% | Percent Remaining at: pH 12 ([6]; 50° C., day 43): 0% | Percent Remaining at: pH 2 ([6]; 50° C., day 88): 100% | Percent Remaining at: pH 6 ([6]; 50° C., day 88): 30% | Percent Remaining at: pH 8 ([6]; 50° C., day 88): 0% | Percent Remaining at: pH 10 ([6]; 50° C., day 88): 0% | Percent Remaining at: pH 12 ([6]; 50° C., day 88): 0% | % CMIT Remaining (without MCC) ([7]; Soluble Fluid 1 (pH 9.2), 2 wk): 28% | % CMIT Remaining (with MCC) ([7]; Soluble Fluid 1 (pH 9.2), 2 wk): 38% | % CMIT Remaining (without MCC) ([7]; Soluble Fluid 1 (pH 9.2), 4 wk): 10% | % CMIT Remaining (with MCC) ([7]; Soluble Fluid 1 (pH 9.2), 4 wk): 18% | % CMIT Remaining (without MCC) ([7]; Soluble Fluid 3 (pH 9.3), 2 wk): 25% | % CMIT Remaining (with MCC) ([7]; Soluble Fluid 3 (pH 9.3), 2 wk): 35% | % CMIT Remaining (without MCC) ([7]; Soluble Fluid 3 (pH 9.3), 4 wk): 0% | % CMIT Remaining (with MCC) ([7]; Soluble Fluid 3 (pH 9.3), 4 wk): 16% | % CMIT Remaining (without MCC) [7, 8]: 13% | % CMIT Remaining (with MCC) [7, 8]: 42% | % CMIT Remaining (without MCC) [7, 9]: 0* % | % CMIT Remaining (with MCC) [7, 9]: 0% | biocide remaining, CMIT with MCC ([7]; after 3-4 weeks in the three fluids, 300 ppm MCC): ≤ 16% | biocide remaining, CMIT alone ([7]; after 3-4 weeks in the three fluids, without MCC): none remaining
